The source of these data is paper PMC8111447 (Frontiers in Pharmacology, 2021).

Like-named read-outs stand apart in the source and are kept apart here.

Series [1] concerns A431 (wild-type EGFR) tumor xenografts. Briefly: A431 xenograft model. It counts as in vivo, Nu/Nu nude mice. The note with it: 30 mg/kg. As to the method:
The female Nu/Nu nude mice were purchased from Beijing Vital River Laboratories. […] Nu/Nu nude mice were purchased from the Beijing Vital River Laboratories of China. The 6–8 weeks old female mice were inoculated subcutaneously at the right flank with approximately 3–5 × 10^6 tumor cells in 0.2 ml of medium. The treatments were started when the tumor size reached approximately 200 mm^3. […] All mice were orally administrated once daily for consecutive 14 days. Mouse body weight, tumor weight and tumor volume (TV) were measured twice per week. TV was then used for the calculation of tumor inhibitory rate and tumor regression rate.

Details of series [2]: method as in earlier work. The conditions noted are these: main metabolites of osimertinib, ref Cheng et al., 2016, Dickinson et al., Vishwanathan et al., 2019; cited from earlier work.
The test system of a further series is EGFR T790M. More on the design: method as in Cross et al., 2014. The conditions noted are these: ref Cross et al., 2014; cited from earlier work.
The test system of a further series is H3255 (EGFR^L858R). Briefly: Cell proliferation assay (CTG, 72 h). It counts as cell-based, human. The note with it: Homo sapiens, NCI-H3255; H3255 cells, 72 h; mean ± SD, n = 3. As to the method:
(§1) Human lung cancer cell lines (NCI-H1975, H3255 and A431) were obtained from the American Type Culture Collection (ATCC), while PC-9 cell line was supplied by the European Collection of Authenticated Cell Cultures (ECACC). For in vivo implantation, NCI-H1975, H3255 and PC-9 cells were cultured in RPMI1640 (Invitrogen) supplemented with 10% v/v fetal calf serum (Sigma-Aldrich) and 2 mmol/L L-glutamine (Invitrogen). A431 cells were cultured in DMEM (Invitrogen) supplemented with 10% v/v fetal calf serum and 2 mmol/L v/v L-glutamine. All cell lines were then cultured in a humidified incubator with 5% CO2 at 37°C.
(§2) Test compounds were dissolved in DMSO as a 10 mmol/L stock solution. The initial concentration of compounds were 10 μmol/L and the 3-fold dilution was nine times. […] Plate was shaked for 2 min and the mixture was incubated at room temperature for 10 min.
(§3) The half-maximal inhibition concentration (IC50) values were processed by GraphPad Prism7 (GraphPad Software; La Jolla, CA).

Another series relates to PC-9 (EGFR^d746–750). Briefly: Cell proliferation assay (CTG, 72 h). It counts as cell-based, human. The note with it: Homo sapiens; PC-9 cells, 72 h; mean ± SD, n = 3. The protocol:
as §1, §2, §3

The subject of the next series is A431 (EGFR^WT). Briefly: Cell proliferation assay (CTG, 72 h). It counts as cell-based. The note with it: Homo sapiens, A-431, A431 cells, mean ± SD, n = 3. As to the method:
as §1, §2, §3

Series [3] has as its system NCI-H1975 (EGFR^L858R/T790M). Briefly: Cell proliferation assay (CTG, 72 h). The note with it: Homo sapiens, NCI-H1975 cells, mean ± SD, n = 3. It counts as cell-based. As to the method: as §1, §2, §3
The test system of the next series is NSCLC patients. The note with it: cited from earlier work.
The mark [4] stands for this setting: NSCLC patients with EGFR T790M mutation, ref Jänne et al., 2015, Mok et al., 2017.

As for `CN(C)C/C=C/C(=O)Nc1cc2c(Nc3ccc(F)c(Cl)c3)ncnc2cc1O[C@H]1CCOC1` [afatinib, reference compound], in series [1], the body weight result was “severe body loss”.

For `C=CC(=O)Nc1cc(Nc2nccc(-c3cn(C)c4ccccc34)n2)c(OC)cc1N(C)CCNC` [AZ7550], in series [2], the “metabolite level relative to the parent drug” value is given as “about 10%”.

Turning to `C=CC(=O)Nc1cc(Nc2nccc(-c3c[nH]c4ccccc34)n2)c(OC)cc1N(C)CCN(C)C` [AZ5104], the “metabolite level relative to the parent drug” value in series [2] is reported as “about 10%”. Moreover, the “fold more active on EGFR T790M than osimertinib” value in the series with EGFR T790M was 8 fold.

The term IC50 denotes the concentration that inhibits the measured activity by half. Take `C=CC(=O)Nc1cc(Nc2nccc(-c3cn(C)c4ccccc34)n2)c(OC)cc1N(C)CCN(C)C` [Osimertinib]: the IC50 in the series with H3255 (EGFR^L858R) worked out at 17.8 ± 0.5 nM; in the series on PC-9 (EGFR^d746–750), 14.2 ± 1.63 nM; in the series with A431 (EGFR^WT) it was […]; in series [3], […]. Further, the ORR was 70% in the series with NSCLC patients (setting [4]) and 70% in the series on NSCLC patients (second-line, locally advanced or metastatic NSCLC progressed on prior EGFR TKI, ref Goss et al., 2016, Mok et al., 2017). For the same compound, the “median PFS” value with NSCLC patients (setting [4]) was 9.9 months. For the same compound, the “efficacy compared to the first-line EGFR TKIs” value with NSCLC patients (advanced NSCLC patients with EGFR mutations, comparator 10.2 months, ref Soria et al., 2018, Ramalingam et al., 2020) is listed as 18.9 months. The overall survival with NSCLC patients (advanced NSCLC patients with EGFR mutations, comparator group 31.8 months, ref Soria et al., 2018, Ramalingam et al., 2020) was 38.6 months.
